For nine compounds, TGI results are on record in PubChem BioAssay (NCI).

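Following 48 hours of exposure in 96-well plates, responses at five concentrations were used to interpolate endpoints linearly. TGI denotes the concentration required for complete inhibition of growth.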

Test systems include SN12C renal; PC-3 prostate; UACC-62 melanoma; HS 578T breast; OVCAR-3 ovarian; SF-539 CNS; MDA-N; SNB-75 CNS; HCC-2998 colon; HCT-116 colon; UACC-257 melanoma; NCI/ADR-RES ovarian; M14 melanoma; MDA-MB-231 breast; 786-0 renal; HOP-92 NSCLC.
What all share (assay): NCI anticancer screen, dose series, 48 h

With `CC12CCC(C(=O)OC1=O)C2(C)C` (stereo not given), the TGI with SN12C renal, with PC-3 prostate, in the assay with UACC-62 melanoma, in the assay on HS 578T breast, with OVCAR-3 ovarian and in the assay on SF-539 CNS was greater than 100 µM in each case. The TGI in the assay with MDA-N, in the assay on SNB-75 CNS, in the assay on HCC-2998 colon, in the assay on HCT-116 colon, in the assay on UACC-257 melanoma and in the assay on NCI/ADR-RES ovarian was greater than 100 µM in each case. In addition, the TGI in the assay on M14 melanoma, in the assay with MDA-MB-231 breast and in the assay on 786-0 renal was greater than 100 µM throughout.
Turning to `O=C(O)c1ccc(NNc2cc(=O)[nH]c(=O)[nH]2)cc1`, the TGI with SN12C renal is greater than 100 µM; in the assay on PC-3 prostate, 83.7 µM; in the assay with UACC-62 melanoma, greater than 100 µM; in the assay on HS 578T breast, greater than 100 µM; in the assay on OVCAR-3 ovarian it was greater than 100 µM; in the assay on SF-539 CNS it was greater than 100 µM. Moreover, the TGI in the assay on MDA-N, with SNB-75 CNS, in the assay with HCC-2998 colon, with HCT-116 colon, in the assay with UACC-257 melanoma and in the assay with NCI/ADR-RES ovarian was greater than 100 µM throughout. Further, the TGI in the assay on M14 melanoma, with MDA-MB-231 breast and with 786-0 renal was greater than 100 µM throughout.
As to `CN1CCOC1(C)CO` (stereo not given), the TGI with PC-3 prostate, in the assay with UACC-62 melanoma, in the assay with HOP-92 NSCLC, in the assay with HS 578T breast, in the assay on OVCAR-3 ovarian and in the assay with SF-539 CNS was greater than 100 µM throughout. Besides, the TGI with MDA-N, with SNB-75 CNS, in the assay on HCT-116 colon, in the assay with UACC-257 melanoma, in the assay with NCI/ADR-RES ovarian and with M14 melanoma was greater than 100 µM throughout. The TGI in the assay with MDA-MB-231 breast and in the assay with 786-0 renal was greater than 100 µM each time.
For `C/C(=N\Nc1cc(CN2CCCC2)c(-c2ccc(Cl)cc2)nn1)C(=O)O`, the TGI in the assay on SN12C renal, with PC-3 prostate, in the assay on UACC-62 melanoma, with HOP-92 NSCLC, in the assay with HS 578T breast and in the assay on OVCAR-3 ovarian was greater than 100 µM throughout. Besides, the TGI with SF-539 CNS, with MDA-N, with SNB-75 CNS, in the assay on HCT-116 colon, in the assay on UACC-257 melanoma and with NCI/ADR-RES ovarian was greater than 100 µM each time. For the same compound, the TGI in the assay on M14 melanoma, in the assay on MDA-MB-231 breast and in the assay with 786-0 renal was greater than 100 µM throughout.
Turning to `CN(C)C1=Nc2ccccc2C(=S)N2CSCC12` (stereo not given), the TGI with SN12C renal, in the assay with PC-3 prostate, in the assay with UACC-62 melanoma, with HS 578T breast, in the assay on OVCAR-3 ovarian and in the assay on MDA-N was greater than 100 µM throughout. The TGI in the assay with SNB-75 CNS, in the assay on HCC-2998 colon, in the assay on HCT-116 colon, in the assay on UACC-257 melanoma, with NCI/ADR-RES ovarian and in the assay with M14 melanoma was greater than 100 µM throughout. The figures for the TGI in the assay with MDA-MB-231 breast and in the assay on 786-0 renal were greater than 100 µM and 62.2 µM, respectively.
For `N#Cc1c(-c2ccccc2)[nH]c2ccccc2c1=O`, the TGI in the assay with SN12C renal is greater than 100 µM; in the assay with PC-3 prostate, greater than 100 µM; in the assay with UACC-62 melanoma it was greater than 100 µM; in the assay on HOP-92 NSCLC, greater than 100 µM; with HS 578T breast it was 71.5 µM; in the assay on OVCAR-3 ovarian it was greater than 100 µM. Further, the TGI was greater than 100 µM with SF-539 CNS; greater than 100 µM in the assay on MDA-N; 38.3 µM with SNB-75 CNS; greater than 100 µM with HCT-116 colon; greater than 100 µM in the assay with UACC-257 melanoma; greater than 100 µM with NCI/ADR-RES ovarian. Further, the TGI in the assay on M14 melanoma, in the assay on MDA-MB-231 breast and in the assay with 786-0 renal was greater than 100 µM in each case.
`CC(=O)c1csc2c1C(=O)c1scc(C(C)=O)c1C2=O`: the TGI in the assay with SN12C renal stood at 3.28 µM; in the assay on PC-3 prostate it was 7.49 µM; in the assay with UACC-62 melanoma, 3.56 µM; in the assay on HOP-92 NSCLC, 3.92 µM; in the assay on HS 578T breast, 6.48 µM; in the assay with OVCAR-3 ovarian, 0.646 µM. Further, the TGI in the assay on SF-539 CNS came out at 3.28 µM; with MDA-N it was 0.319 µM; with SNB-75 CNS it was 4.54 µM; with HCT-116 colon it was 4.85 µM; in the assay on UACC-257 melanoma it was 2.41 µM; with NCI/ADR-RES ovarian, 3.9 µM. Besides, the TGI in the assay with M14 melanoma is 3.1 µM; in the assay with MDA-MB-231 breast, 1.43 µM; in the assay on 786-0 renal, 4.12 µM.
As for `CC(=O)Oc1ccccc1-c1cc2ccccc2oc1=O`, the TGI in the assay on SN12C renal, in the assay on PC-3 prostate, with HS 578T breast, in the assay with OVCAR-3 ovarian, with SF-539 CNS and with MDA-N was greater than 100 µM each time. Moreover, the TGI with SNB-75 CNS, in the assay with HCC-2998 colon, with HCT-116 colon, with UACC-257 melanoma, with NCI/ADR-RES ovarian and in the assay with M14 melanoma was greater than 100 µM throughout. Moreover, the TGI in the assay with MDA-MB-231 breast and with 786-0 renal was greater than 100 µM throughout.
With `CC(C)CC1[C@@H](OCc2ccccc2)COS(=O)N1Cc1ccccc1` (stereo not given in full), the TGI in the assay on SN12C renal was greater than 100 µM; with PC-3 prostate it was greater than 100 µM; in the assay on UACC-62 melanoma, greater than 100 µM; with HS 578T breast, 80 µM; in the assay on OVCAR-3 ovarian, greater than 100 µM; with MDA-N, greater than 100 µM. Also, the TGI in the assay on SNB-75 CNS was 70.7 µM; with HCT-116 colon it was greater than 100 µM; with UACC-257 melanoma, greater than 100 µM; in the assay on NCI/ADR-RES ovarian, greater than 100 µM; with M14 melanoma, greater than 100 µM; with MDA-MB-231 breast, greater than 100 µM. Further, the TGI in the assay on 786-0 renal was greater than 100 µM.
